Measured values reported in publication PMC11266321 (EJNMMI Radiopharmacy and Chemistry, 2024).
Several values for one entry are separate records, joined by “and”; a condition that tells them apart may be missing. Equal entries are not always repeated.

Test: Tissue distribution of radioactivity in mice
Type: in vivo, mouse
Settings: mean ± SD n = 4
Experimental: [^11C]MMP (8.1 MBq/17 pmol) was injected intravenously into 8-week-old male ddY mice (37.8–42.4 g). The tracer-injected mice were housed individually in filter-paper-lined animal-rearing cages until the time of euthanasia. Mice were euthanized by cervical dislocation at 1, 5, 15, 30, 60, and 90 min after injection (n = 4 each). Blood was collected by heart puncture, and the tissues were harvested. Radioactivity excreted into urine was recovered from the cage floor and by cystocentesis from the urinary bladder. The samples were measured for ^11C radioactivity with an auto-gamma counter (Hidex-AMG, Turku, Finland) and weighed. Tissue uptake of ^11C was expressed as the percentage of injected dose per organ (%ID/organ) or the percentage of injected dose per gram of tissue (%ID/g). The tissue distribution data were extrapolated to an adult male phantom using the %kg/g method (Blau [1975]). The radiation absorbed dose and effective dose for human adults were estimated using OLINDA/EXM software (Vanderbilt University, Nashville, TN) (Stabin et al. [2005]). Effective dose was estimated using the risk-weighting factor of ICRP Publication 103 (ICRP [2007]).

## CC(C)NC(C)Cc1ccc([11CH3])cc1 (centres unmarked) [[^11C]MMP, N-isopropyl-4-[^11C]methylamphetamine]
15 min after i.v. injection
  Injected dose/organ (%), Bladder: 0.60 ± 0.32 %ID/organ
  Injected dose/organ (%), Bladder + urine: 13.64 ± 2.31 %ID/organ
  Injected dose/organ (%), Brain: 2.12 ± 0.06 %ID/organ
  Injected dose/organ (%), Heart: 0.33 ± 0.02 %ID/organ
  Injected dose/organ (%), Kidney: 7.47 ± 1.09 %ID/organ
  Injected dose/organ (%), Large intestine: 2.13 ± 1.04 %ID/organ
  Injected dose/organ (%), Liver: 15 %ID/organ and 14.98 ± 2.48 %ID/organ
  Injected dose/organ (%), Lung: 1.47 ± 0.10 %ID/organ
  Injected dose/organ (%), Pancreas: 1.74 ± 0.24 %ID/organ
  Injected dose/organ (%), Small intestine: 6.13 ± 1.74 %ID/organ
  Injected dose/organ (%), Spleen: 0.64 ± 0.12 %ID/organ
  Injected dose/organ (%), Stomach: 2.46 ± 0.69 %ID/organ
  Injected dose/organ (%), Testis: 0.45 ± 0.05 %ID/organ
  Injected dose/organ (%), Urine: 13.03 ± 2.51 %ID/organ
30 min after i.v. injection
  Injected dose/g tissue (%), Blood: 0.62 ± 0.21 %ID/g
  Injected dose/g tissue (%), Bone: 0.76 ± 0.26 %ID/g
  Injected dose/g tissue (%), Brain: 2.63 ± 0.22 %ID/g
  Injected dose/g tissue (%), Heart: 1.16 ± 0.22 %ID/g
  Injected dose/g tissue (%), Kidney: 7.08 ± 1.91 %ID/g
  Injected dose/g tissue (%), Large intestine: 1.22 ± 0.63 %ID/g
  Injected dose/g tissue (%), Liver: 5.46 ± 0.97 %ID/g
  Injected dose/g tissue (%), Lung: 3.68 ± 0.50 %ID/g
  Injected dose/g tissue (%), Muscle: 0.78 ± 0.17 %ID/g
  Injected dose/g tissue (%), Pancreas: 4.58 ± 0.52 %ID/g
  Injected dose/g tissue (%), Small intestine: 2.14 ± 0.67 %ID/g
  Injected dose/g tissue (%), Spleen: 2.48 ± 0.45 %ID/g
  Injected dose/g tissue (%), Stomach: 2.69 ± 0.26 %ID/g
  Injected dose/g tissue (%), Testis: 1.69 ± 0.36 %ID/g
  Injected dose/organ (%), Bladder: 2.40 ± 1.59 %ID/organ
  Injected dose/organ (%), Bladder + urine: 32.99 ± 3.90 %ID/organ
  Injected dose/organ (%), Brain: 1.09 ± 0.11 %ID/organ
  Injected dose/organ (%), Heart: 0.21 ± 0.01 %ID/organ
  Injected dose/organ (%), Kidney: 4.79 ± 1.06 %ID/organ
  Injected dose/organ (%), Large intestine: 1.59 ± 0.61 %ID/organ
  Injected dose/organ (%), Liver: 12.97 ± 1.05 %ID/organ
  Injected dose/organ (%), Lung: 0.79 ± 0.09 %ID/organ
  Injected dose/organ (%), Pancreas: 0.83 ± 0.03 %ID/organ
  Injected dose/organ (%), Small intestine: 3.66 ± 0.59 %ID/organ
  Injected dose/organ (%), Spleen: 0.35 ± 0.07 %ID/organ
  Injected dose/organ (%), Stomach: 1.76 ± 0.50 %ID/organ
  Injected dose/organ (%), Testis: 0.52 ± 0.11 %ID/organ
  Injected dose/organ (%), Urine: 30.59 ± 5.33 %ID/organ
60 min after i.v. injection
  Injected dose/g tissue (%), Blood: 0.56 ± 0.23 %ID/g
  Injected dose/g tissue (%), Bone: 0.49 ± 0.04 %ID/g
  Injected dose/g tissue (%), Brain: 1.01 ± 0.09 %ID/g
  Injected dose/g tissue (%), Heart: 0.56 ± 0.22 %ID/g
  Injected dose/g tissue (%), Kidney: 3.73 ± 3.22 %ID/g
  Injected dose/g tissue (%), Large intestine: 0.61 ± 0.27 %ID/g
  Injected dose/g tissue (%), Liver: 2.93 ± 0.85 %ID/g
  Injected dose/g tissue (%), Lung: 1.73 ± 0.45 %ID/g
  Injected dose/g tissue (%), Muscle: 0.51 ± 0.24 %ID/g
  Injected dose/g tissue (%), Pancreas: 2.52 ± 0.24 %ID/g
  Injected dose/g tissue (%), Small intestine: 1.88 ± 0.59 %ID/g
  Injected dose/g tissue (%), Spleen: 1.47 ± 0.44 %ID/g
  Injected dose/g tissue (%), Stomach: 1.27 ± 0.89 %ID/g
  Injected dose/g tissue (%), Testis: 1.85 ± 0.35 %ID/g
  Injected dose/organ (%), Bladder: 0.23 ± 0.12 %ID/organ
  Injected dose/organ (%), Bladder + urine: 53.94 ± 7.66 %ID/organ
  Injected dose/organ (%), Brain: 0.41 ± 0.06 %ID/organ
  Injected dose/organ (%), Heart: 0.11 ± 0.03 %ID/organ
  Injected dose/organ (%), Kidney: 2.37 ± 2.03 %ID/organ
  Injected dose/organ (%), Large intestine: 0.85 ± 0.51 %ID/organ
  Injected dose/organ (%), Liver: 6.29 ± 1.96 %ID/organ
  Injected dose/organ (%), Lung: 0.36 ± 0.10 %ID/organ
  Injected dose/organ (%), Pancreas: 0.47 ± 0.04 %ID/organ
  Injected dose/organ (%), Small intestine: 3.41 ± 0.77 %ID/organ
  Injected dose/organ (%), Spleen: 0.17 ± 0.02 %ID/organ
  Injected dose/organ (%), Stomach: 0.82 ± 0.44 %ID/organ
  Injected dose/organ (%), Testis: 0.53 ± 0.15 %ID/organ
  Injected dose/organ (%), Urine: 53.71 ± 7.68 %ID/organ
90 min after i.v. injection
  Injected dose/g tissue (%), Blood: 0.23 ± 0.09 %ID/g
  Injected dose/g tissue (%), Bone: 0.59 ± 0.14 %ID/g
  Injected dose/g tissue (%), Brain: 0.45 ± 0.08 %ID/g
  Injected dose/g tissue (%), Heart: 0.35 ± 0.14 %ID/g
  Injected dose/g tissue (%), Kidney: 6.64 ± 3.76 %ID/g
  Injected dose/g tissue (%), Large intestine: 0.61 ± 0.16 %ID/g
  Injected dose/g tissue (%), Liver: 1.94 ± 0.88 %ID/g
  Injected dose/g tissue (%), Lung: 1.03 ± 0.13 %ID/g
  Injected dose/g tissue (%), Muscle: 0.42 ± 0.18 %ID/g
  Injected dose/g tissue (%), Pancreas: 1.25 ± 0.34 %ID/g
  Injected dose/g tissue (%), Small intestine: 1.34 ± 1.24 %ID/g
  Injected dose/g tissue (%), Spleen: 0.56 ± 0.17 %ID/g
  Injected dose/g tissue (%), Stomach: 1.52 ± 1.28 %ID/g
  Injected dose/g tissue (%), Testis: 1.47 ± 0.44 %ID/g
  Injected dose/organ (%), Bladder: 2.32 ± 1.75 %ID/organ
  Injected dose/organ (%), Bladder + urine: 58 %ID/organ and 57.89 ± 3.18 %ID/organ
  Injected dose/organ (%), Brain: 0.21 ± 0.07 %ID/organ
  Injected dose/organ (%), Heart: 0.07 ± 0.03 %ID/organ
  Injected dose/organ (%), Kidney: 4.56 ± 2.94 %ID/organ
  Injected dose/organ (%), Large intestine: 0.77 ± 0.16 %ID/organ
  Injected dose/organ (%), Liver: 4.85 ± 2.18 %ID/organ
  Injected dose/organ (%), Lung: 0.23 ± 0.03 %ID/organ
  Injected dose/organ (%), Pancreas: 0.25 ± 0.05 %ID/organ
  Injected dose/organ (%), Small intestine: 2.47 ± 2.43 %ID/organ
  Injected dose/organ (%), Spleen: 0.08 ± 0.03 %ID/organ
  Injected dose/organ (%), Stomach: 0.84 ± 0.56 %ID/organ
  Injected dose/organ (%), Testis: 0.49 ± 0.17 %ID/organ
  Injected dose/organ (%), Urine: 55.57 ± 3.04 %ID/organ
